The subject of the assay is PDE IV. The experiment in a line: Inhibition of PDE IV activity (method of Bauer and Schwabe, adapted to microtitre plates). Format: biochemical. The settings on record: Hemmung der PDE IV-Aktivität. From the text:
Der Aktivitätstest wurde nach der Methode von Bauer und Schwabe durchgeführt, die auf Mikrotiterplatten adaptiert wurde (Naunyn-Schmiedeberg's Arch. Pharmacol. 1980, 311, 193-198). Hierbei erfolgt im ersten Schritt die PDE-Reaktion. In einem zweiten Schritt wird das entstandene 5'-Nukleotid durch eine 5'-Nukleotidase des Schlangengiftes von ophiophagus hannah (King Cobra) zum ungeladenen Nukleosid gespalten. Im dritten Schritt wird das Nukleosid auf Ionenaustauschsäulen vom verbliebenen geladenen Substrat getrennt. Die Säulen werden mit 2 ml 30 mM Ammoniumformiat (pH 6,0) direkt in Minivials eluiert, in die noch 2 ml Szintillatorflüssigkeit zur Zählung gegeben wird.
Die für die erfindungsgemäßen Verbindungen ermittelten Hemmwerte ergeben sich aus der folgenden Tabelle A, in der die Nummern der Verbindungen den Nummern der Beispiele entsprechen. Tabelle A

Each structure is given as a SMILES string.

Regarding `COc1ccc(C(O)Cc2ccncc2)c2c1OC1(C=C2)CCCC1` (racemic) [Verbindung 1, (±)-Spiro{5-[1-Hydroxy-2-(pyrid-4-yl)ethyl]-8-methoxy-[2H]chromen-2,1'-Cyclopentan}], the “PDE 4 -logIC50” value is listed as 5,88. Turning to `COc1ccc(/C=C(\C#N)c2ccncc2)c2c1OC(C)(C)C=C2` [Verbindung 5, (Z)-5-[2-Cyano-2-(pyrid-4-yl)ethenyl]-8-methoxy-2,2-dimethyl-[2H]chromen], the “PDE 4 -logIC50” value was 6,73.

As for `COc1ccc(CC(C#N)c2ccccn2)c2c1OC(C)(C)CC2` (racemic) [Verbindung 10, (±)-5-[2-Cyano-2-(pyrid-2-yl)ethyl]-8-methoxy-2,2-dimethylchroman], the “PDE 4 -logIC50” value is recorded as 6,76.

With `COc1ccc(CCc2ccncc2)c2c1OC1(CCCC1)CC2` [Verbindung 3, Spiro{5-[2-(pyrid-4-yl)ethyl]-8-methoxychroman-2.1'-Cyclopentan}], the “PDE 4 -logIC50” value is reported as 7,59. Then `COc1ccc(/C=C(\C#N)c2ccncc2)c2c1OC1(C=C2)CCCC1` [Verbindung 4, (Z)-Spiro{5-[2-Cyano-2-(pyrid-4-yl)ethenyl]-8-methoxy-[2H]chromen-2.1'-Cyclopentan}], with 6,12; and `COc1ccc(CC(C#N)c2ccncc2)c2c1OC1(CCCC1)CC2` (racemic) [Verbindung 8, (±)-Spiro{5-[2-Cyano-2-(pyrid-4-yl)ethyl]-8-methoxychroman}], with 6,95; and `COc1ccc(/C=C(\C#N)c2ccccn2)c2c1OC(C)(C)C=C2` [Verbindung 7, (Z)-5-[2-Cyano-2-(pyrid-2-yl)ethenyl]-8-methoxy-2,2-dimethyl-[2H]chromen], with 5,95. Then `COc1ccc(CC(C#N)c2ccncc2)c2c1OC(C)(C)CC2` (racemic) [Verbindung 9, (±)-5-[2-Cyano-2-(pyrid-4-yl)ethyl]-8-methoxy-2,2-dimethylchroman], with 7,01; and `COc1ccc(/C=C/c2ccncc2)c2c1OC1(C=C2)CCCC1` [Verbindung 2, (E)-Spiro{5-[2-(pyrid-4-yl)ethenyl]-8-methoxy-[2H]chromen-2,1'-Cyclopentan}], with 7,10; and `COc1ccc(/C=C(\C#N)c2cccnc2)c2c1OC(C)(C)C=C2` [Verbindung 6, (Z)-5-[2-Cyano-2-(pyrid-3-yl)ethenyl]-8-methoxy-2,2-dimethyl-[2H]chromen], with 6,36.

(Values after patent EP0819689A1, “5-substituted (2H) chromenes” (Byk Gulden Lomberg Chemische Fabrik GmbH, priority 1996, dated 1998).)
